Data on three compounds can be found in patent publication US9067937B2 (priority 2012, dated 2015).

One experiment concerns PC-14 xenografts. Nature of the experiment: Xenograft model antitumor assay (MELK-negative). It counts as in vivo, mice. The following applies: PC-14 (MELK hardly detectable), 10 mg/kg oral once a day, 14 days.
In the next experiment the test system is MIAPaCa-2 xenografts. In words: Xenograft model antitumor assay. To be noted: mouse, in vivo. The arrangement: species or system mice.
Another experiment deals with DU145 xenografts. In words: Xenograft model antitumor assay. The arrangement: species or system mice. The following applies: mouse, in vivo.
Another experiment relates to HT1197 cells. Nature of the experiment: Cell-based assay, anti-proliferative activity, MELK-negative control (Cell Counting Kit-8, 72 hours). On the set-up: species or system human. The following applies: Homo sapiens. On the procedure:
100 micro-L of cell suspension was seeded onto 96-well microtiter plate (ViewPlate-96FTC, PerkinElmer). The initial cell concentration of 22Rv1, T47D, A549, DU4475, and HT1197 were 3,000 cells/well, 2,000 cells/well and 2,500 cells/well, respectively. Cellular growth was determined using Cell Counting Kit-8 (DOJINDO) at 72 hours after the exposure of the candidate inhibitors. […] Accurate IC50 values were calculated as described previously.

The subject of the next experiment is MDA-MB-231 xenografts. In words: Xenograft model antitumor assay. On the set-up: species or system mice. The following applies: mouse, in vivo; dihydrochloride.
The subject of another experiment is T47D cells. Nature of the experiment: Cell-based assay, anti-proliferative activity (Cell Counting Kit-8, 72 hours). On the set-up: species or system human. To be noted: Homo sapiens, T47D. In a few lines: (§1)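 Cells seeded at 2,000–3,000 cells/well and exposed to candidate MELK inhibitors for 72 hours; growth measured with Cell Counting Kit-8. IC50 values calculated from the growth read-out.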

The next experiment has as its system 22Rv1 cells. Described as above. To be noted: Homo sapiens. On the set-up: species or system human. In a few lines:
as §1

In another experiment the test system is A549 cells. The experiment is described as above. To be noted: Homo sapiens. The arrangement: species or system human. In a few lines:
as §1

Another experiment relates to DU4475 cells. The experiment is described as above. The arrangement: species or system human. To be noted: Homo sapiens. In a few lines: as §1
The target in a further experiment is MELK (Homo sapiens, UniProt Q14680). Nature of the experiment: Kinase assay (IMAP fluorescence polarization, FITC-labeled histone H3 peptide). It counts as biochemical. To be noted: 50 micro-M ATP. In a few lines:
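Kinase (0.8 ng/μL) reacted with 100 nM FITC-histone H3 peptide and 50 μM ATP in 20 mM HEPES, 0.3 mM MgCl2, 2 mM DTT, 0.01% Tween-20, pH 7.4, for 1 hour at room temperature. Phosphorylation read by IMAP fluorescence polarization after adding binding solution; IC50 from four-parameter fit.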

[1] abbreviates: HT1197, 72 h, read-out: IC50 (μM) (HTll97).
Setting [2] is: 72 h, read-out: IC50 (μM) (T47D).
Where [3] appears, read: 22Rv1, 72 h, read-out: IC50 (μM) (22Rvl).
The mark [4] stands for this setting: A549, 72 h, read-out: IC50 (μM) (A549).
The mark [5] stands for this setting: DU-4475, 72 h, read-out: IC50 (μM) (DU4475).

Where “and” joins values, the source holds several entries; their conditions need not be identical. Identical values can stand only once. Counter-ions that a name gives are not always drawn. Like-named read-outs stand apart in the source and are kept apart here.

MELK, sequence (Q14680 whole entry, looked up): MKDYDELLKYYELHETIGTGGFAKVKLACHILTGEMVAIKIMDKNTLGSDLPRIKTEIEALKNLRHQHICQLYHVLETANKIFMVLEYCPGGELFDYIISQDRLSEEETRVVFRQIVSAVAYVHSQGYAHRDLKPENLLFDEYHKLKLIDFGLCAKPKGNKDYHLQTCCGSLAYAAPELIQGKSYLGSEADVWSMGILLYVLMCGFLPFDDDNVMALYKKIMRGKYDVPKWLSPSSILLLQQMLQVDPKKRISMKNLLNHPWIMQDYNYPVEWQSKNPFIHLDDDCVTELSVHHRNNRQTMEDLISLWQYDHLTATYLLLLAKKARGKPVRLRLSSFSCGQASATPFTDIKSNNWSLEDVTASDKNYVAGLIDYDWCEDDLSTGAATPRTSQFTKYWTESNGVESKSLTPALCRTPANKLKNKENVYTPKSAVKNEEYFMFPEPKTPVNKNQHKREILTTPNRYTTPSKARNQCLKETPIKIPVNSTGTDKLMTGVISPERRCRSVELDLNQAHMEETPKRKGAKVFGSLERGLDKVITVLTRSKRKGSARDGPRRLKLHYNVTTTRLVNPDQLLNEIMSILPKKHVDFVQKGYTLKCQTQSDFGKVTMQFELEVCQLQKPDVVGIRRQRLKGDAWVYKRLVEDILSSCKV

`CC(=O)c1cnc2ccc(-c3cc(Cl)c(O)c(Cl)c3)nc2c1N[C@H]1CC[C@H](CN(C)C)CC1` [Example 6, 1-{6-(3,5-Dichloro-4-hydroxyphenyl)-4-({trans-4-[(dimethylamino)methyl]cyclohexyl}amino)-1,5-naphthyridin-3-yl}ethanone dihydrochloride]: the “Tumor growth suppressive effect” value in the experiment with PC-14 xenografts is “no tumor growth suppressive effect”. For the same compound, the “Tumor growth inhibition (TGI)” value with MIAPaCa-2 xenografts is 87%; in the experiment with DU145 xenografts it was 106%; with MDA-MB-231 xenografts it was 73% and 72%. Also, the IC50 in the experiment on HT1197 cells (setting [1]) turned out to be 0.12 µM; in the experiment on HT1197 cells (HT1197, read-out: IC50, in vitro anti-proliferative assay), 0.097 µM; with T47D cells (setting [2]), 0.0053 µM; with T47D cells (read-out: IC50, in vitro anti-proliferative assay) it was 0.0043 µM; in the experiment on 22Rv1 cells (setting [3]) it was 0.0052 µM; in the experiment on 22Rv1 cells (22Rv1, read-out: IC50, in vitro anti-proliferative assay) it was 0.006 µM. In addition, the IC50 in the experiment on A549 cells (setting [4]) amounted to 0.0089 µM; in the experiment on A549 cells (A549, read-out: IC50, in vitro anti-proliferative assay), 0.0067 µM; in the experiment with DU4475 cells (setting [5]), 0.0033 µM; in the experiment on DU4475 cells (DU-4475, read-out: IC50, in vitro anti-proliferative assay), 0.0023 µM.

Consider `CC(=O)c1cnc2ccc(-c3ccc4[nH]cnc4c3)nc2c1N[C@H]1CC[C@H](CN(C)C)CC1` [Example 55, 1-(6-(1H-Benzo[d]imidazol-5-yl)-4-{trans-4-[(dimethylamino)methyl]cyclohexylamino}-1,5-naphthyridin-3-yl)ethanone trihydrochloride], for which the IC50 worked out at 0.017 µM at MELK; 2 µM in the experiment on HT1197 cells (setting [1]); 0.084 µM with T47D cells (setting [2]); 0.3 µM with 22Rv1 cells (setting [3]); 0.25 µM in the experiment with A549 cells (setting [4]); 0.65 µM in the experiment on DU4475 cells (setting [5]).

Take `CC(=O)c1cnc2ccc(-c3cc(Cl)c(O)c(Cl)c3)nc2c1Nc1ccc(NCCN(C)C)nc1` [Example 38, 1-[6-(3,5-Dichloro-4-hydroxyphenyl)-4-{6-[2-(dimethylamino)ethylamino]pyridin-3-ylamino}-1,5-naphthyridin-3-yl]ethanone trihydrochloride]: the IC50 is 0.011 µM against MELK; 9.5 µM with HT1197 cells (setting [1]); 0.11 µM in the experiment with T47D cells (setting [2]); 0.24 µM with 22Rv1 cells (setting [3]); 0.26 µM in the experiment on A549 cells (setting [4]); 0.069 µM in the experiment on DU4475 cells (setting [5]).
